Patent publication US9481637B2, “Compounds for the treatment of seizures and other central nervous systems disorders and conditions” (Ketogen Inc., priority 2014, dated 2016)

How the values were obtained:
Format in all cases: in vivo
[1] = system: 6 Hz-induced psychomotor seizures in CD-1 mice; assay: 6 Hz psychomotor seizure test; conditions: for incidence of psychomotor seizures / mice protected from psychomotor seizure: 1 h pretreatment; for incidence of psychomotor seizures: vs Vehicle
Source text: Male, experimentally naive CD-1 mice were used in these experiments. At a defined time following drug or vehicle pretreatment, all mice received an electrical stimulus (6 Hz, 0.2 ms pulse width, 3 s duration, 32 mA) via corneal electrodes moistened with saline (ECT unit 57800; Ugo Basile). Preliminary experiments established that these stimulus parameters elicited a psychomotor seizure, defined as the expression of at least one of the following behaviors: stun/immobility, forelimb clonus, straub tail, lateral head movement, in >95% of control animals. Protection was defined as complete absence of all the above behaviors within 20 s of stimulus delivery. The effective dose of compound necessary to protect against psychomotor seizures to 50% of controls (i.e. ED50) was determined by curve fitting program.
(§1) Male mice (body wt. 20-40 g) were used for all studies. Mice were used in one of the following 4 seizure tests: maximal electroshock seizure (MES) test, subcutaneous injection of pentylenetetrazol (scPTZ) test, seizures induced by 6 Hz stimulation (6 Hz), and corneal kindled seizures. These tests were selected because no single test detects all known anti-epileptic drugs (AED's), but all currently known AED's are detected as active (i.e. prevent seizures) in at least one of these tests. Subjects were tested in one of the 4 seizure tests following a defined time after treatment with either test drug or vehicle control. Following administration of test drug or vehicle by either the oral, subcutaneous or intraperitoneal route, the animals were tested according to one of the methods outlined below (1-4). Typically the pretreatment time was 60 minutes although in some cases this varied from 30 min to 4 h.
3. 6 Hz Psychomotor Seizure Test:
Male CD-1 mice received an electrical stimulus (6 Hz, 0.2 ms pulse width, 3 s duration, 32 mA) via corneal electrodes moistened with saline (ECT unit 57800; Ugo Basile). These stimulus parameters should elicit a psychomotor seizure, defined as the expression of at least one of the following behaviours: stun/immobility, forelimb clonus, straub tail, vibrissae tremor, lateral head movement, in >95% of control animals within 30 s of stimulus delivery. To establish drug efficacy, test drug or vehicle was administered at a defined timepoint prior to the 6 Hz test, to separate experimental groups. The effect of treatment on subsequent seizure was noted. Protection is defined as complete absence of all the above behaviours within 20 s of stimulus delivery. The experiment was terminated immediately once the endpoint was met.

[2] = system: scPTZ-induced seizures in CD-1 mice; assay: s.c. pentylenetetrazol seizure test (scPTZ test)
Source text: as §1
2. s.c. Pentylenetetrazol Seizure Test (PTZ Test):
Male CD-1 mice received a single subcutaneous injection of pentylenetetrazol (PTZ: 85 mg/kg). This dose of PTZ should elicit a clonic seizure in >95% of control animals. Following PTZ injection, the animals were immediately transferred to single observation cages and observed continuously for 30 min. To establish drug efficacy, test drug or vehicle was administered at a defined timepoint prior to the PTZ administration, to separate experimental groups. The effect of treatment on subsequent seizure was noted. Protection is defined as complete absence of a clonic seizure, including a forelimb clonus, over the 30 min observation period. In the event of a seizure, the onset latency from PTZ injection was recorded. The experiment was terminated immediately once the endpoint was met, or in the case of protection, at the completion of the 30 min test period.

[3] = system: MES-induced tonic seizures in CD-1 mice; assay: Maximal electroshock test (MES test)
Source text: as §1
1. Maximal Electroshock Test (MES Test):
Male CD-1 mice received a maximal electroshock (45 mA, 0.2 s duration, 60 Hz) via corneal electrodes moistened with saline (shock stimulator type 221; Harvard apparatus). This stimulus intensity should elicit a full tonic seizure in >95% of control animals. Protection is defined as absence of a full tonic seizure within 15 s of stimulus delivery. To establish drug efficacy, test drug or vehicle was administered at a defined timepoint prior to the MES test, to separate experimental groups. The experiment was terminated immediately once the endpoint was met.

[4] = system: corneal kindled seizures in CD-1 mice; assay: Mouse corneal kindling; conditions: 75 and 300 mg/kg; IP and oral routes
Source text: as §1
4. Mouse Corneal Kindling:
Male CD-1 mice (body wt. 20-40 g) were used for these studies. There are 3 phases to the procedure: (1) kindling development phase, (2) kindling stability/persistence phase, and (3) drug testing phase.
1. […]
Drug testing was conducted using a repeated measures design with mice receiving up to 4 doses of a test drug and control treatments in a counterbalanced sequence. […] For each stimulation, the kindling score was assessed according to the Racine (1972) rating scale. […]

[5] = 75-600 mg/kg IP and oral routes
[6] = 37.5-600 mg/kg IP and oral routes
[7] = 150, 300 and 600 mg/kg IP and 600 mg/kg oral

SMILES	incidence of psychomotor seizures [1, 5]	mice protected from psychomotor seizure ([1]; 300-600 mg/kg IP)	6 Hz EC50 (mg/kg) ([1]; Dose route IP)	6 Hz EC50 (mmol/kg) ([1]; Dose route IP)	6 Hz EC50 (mg/kg) ([1]; Dose route PO)	6 Hz EC50 (mmol/kg) ([1]; Dose route PO)	ScPTZ EC50 (mg/kg) ([2]; Dose route IP)	ScPTZ EC50 (mmol/kg) ([2]; Dose route IP)	ScPTZ EC50 (mg/kg) ([2]; Dose route PO)	ScPTZ EC50 (mmol/kg) ([2]; Dose route PO)	MES EC50 (mg/kg) ([3]; Dose route IP)	MES EC50 (mmol/kg) ([3]; Dose route IP)	MES EC50 (mg/kg) ([3]; Dose route PO)	MES EC50 (mmol/kg) ([3]; Dose route PO)	other results
CCCCCCCCCC(=O)NC[C@H](CC(=O)O)CC(C)C [compound 14, (S)-3-(decanamidomethyl)-5-methylhexanoic acid]	dose-related decrease in the incidence of seizures	all mice													
CCCCC1CCC(C(=O)NC(=O)[C@H](CC)N2CCCC2=O)CC1 (stereo partly drawn) [compound 26, (S)-4-butyl-N-(2-(2-oxopyrrolidin-1-yl)butanoyl)cyclohexane-1-carboxamide]		all mice	80	0.24	88	0.26	230	0.68	300	0.89	>600	>1.78	>600	>1.78	incidence of psychomotor seizures [1, 6]: dose-related decrease in the incidence of seizures; scPTZ-induced seizures (incidence, onset latency) vs vehicle control (FIGS. 15-16) [2, 7]: reduced seizures; MES-induced tonic seizures vs vehicle control (FIG. 14) ([3]; 300 and 600 mg/kg IP and 600 mg/kg oral): reduced seizures
CCCCCCCC(=O)NC(=O)[C@H](CC)N1CCCC1=O [compound 20, (S)—N-(2-(2-oxopyrrolidin-1-yl)butanoyl)octanamide]			90	0.3	130	0.44	>600	>2.02	>600	>2.02	>600	>2.02	>600	>2.02	6 Hz-induced seizures vs vehicle control (FIG. 8) ([1]; 75, 150, 300 or 600 mg/kg 1 hr pre-stimulation, 300 mg/kg at 2 and 4 hr, oral or IP): reduced seizures; scPTZ-induced seizures vs vehicle control (FIG. 9) ([2]; 300 and 600 mg/kg IP): reduced seizures; MES-induced tonic seizures vs vehicle control (FIG. 7) ([3]; 600 mg/kg IP): reduced seizures; corneal kindled seizures (Racine kindling score) vs vehicle control (FIG. 10) [4]: reduced seizures
CCCCCCCCC(=O)NC(=O)[C@H](CC)N1CCCC1=O [compound 21, (S)—N-(2-(2-oxopyrrolidin-1-yl)butanoyl)nonanamide]	dose-related decrease in the incidence of seizures	all mice													
CCCCC(CC)CCC(=O)NC(=O)[C@H](CC)N1CCCC1=O (stereo partly drawn) [compound 25, 4-ethyl-N—((S)-2-(2-oxopyrrolidin-1-yl)butanoyl)octanamide]		all mice	46	0.14	50	0.15	310	0.95	600	1.85	397	1.22	>600	>1.85	incidence of psychomotor seizures [1, 6]: dose-related decrease in the incidence of seizures; scPTZ-induced seizures (incidence, onset latency) vs vehicle control (FIGS. 12-13) [2, 7]: reduced seizures; MES-induced tonic seizures vs vehicle control (FIG. 11) [3, 7]: reduced seizures
CCCCCCCCC(=O)NCC1(CC(=O)O)CCCCC1 [compound 4, 2-(1-(nonanamidomethyl)cyclohexyl)acetic acid]															mice protected from psychomotor seizure ([1]; 600 mg/kg IP): all mice; mice protected from psychomotor seizure ([1]; 600 mg/kg oral): No mice; incidence of psychomotor seizures ([1]; 150-600 mg/kg IP): dose-related decrease in the incidence of seizures
CCCCCCCCCC(=O)NC(=O)[C@H](CC)N1CCCC1=O [compound 22, (S)—N-(2-(2-oxopyrrolidin-1-yl)butanoyl)decanamide]	dose-related decrease in the incidence of seizures														mice protected from psychomotor seizure ([1]; 600 mg/kg IP): all mice
